Data published in US4923969A, “Preparation of 99m Tc radiopharmaceuticals” (The Commonwealth of Australia, priority 1983, dated 1990).

Experiment: Stability of dried 99mTcNCl4- preparation
Type: physicochemical
Protocol: Samples of the ^99m TcNCl4^- preparation were taken to dryness in a rotary evaporator and stored for 24 hours (a) in air at room temperature, (b) at 80° C., and (c) at room temperature and 100% humidity. They were then used to prepare ^99m TcN-DTPA by addition of ligand as before.

Compound: [N]#[99Tc-]([Cl])([Cl])([Cl])[Cl].[Na+] [^99m TcNCl4^-, sodium tetrachloronitridotechnetate]
- chromatographic behaviour (HPLC) after storage of the dry reagent (24 hours in air at room temperature, at 80° C., or at room temperature and 100% humidity, tested as 99mTcN-DTPA): No significant difference in chromatographic behaviour
- stability of the dry preparation for distribution (dry preparation): sufficiently stable to be prepared in a central laboratory or manufacturing site and distributed to users
- storage time for which the dry reagent was stable ("stable for up to") (dry, air at room temperature, 80° C., or room temperature and 100% humidity): ≥ 24 h
